Data on 2 compounds can be found in publication PMC11347150, “Aurora: a fluorescent deoxyribozyme for high-throughput screening” (Nucleic Acids Research, 2024).

Structures are written as SMILES.

On the set-up of data set [1]: method as in PMID 9873685, PMID 18355003. Conditions: pH 10; cited from earlier work.
The next data set concerns the target Nsp15 (Severe acute respiratory syndrome coronavirus 2, UniProt P0DTD1). Conditions: 1 mM ZnCl2, negative control wells.

Experimental for Nsp15: Small molecules from a 1000-member fragment screen library (Maybridge) were transferred to the wells of 384-well plates using an Echo 550 liquid handler. Nsp15 protein in 1 × Nsp15 buffer (50 mM KCl, 20 mM HEPES pH 7.4, 5 mM MnCl2, 0.003% (v/v) Tween20) was then added using a CERTUS Flex liquid handler. After mixing, the Aurora Nsp15 sensor (in 1 × Nsp15 buffer) was added using a CERTUS Flex liquid handler. Reactions were mixed again. Final concentrations were 25 μM Aurora Nsp15 sensor, 400 nM Nsp15 protein, 1 × Nsp15 buffer (50 mM KCl, 20 mM HEPES pH 7.4 and 5 mM MnCl2), 0.003% (v/v) Tween20, and 200 μM small molecule from the fragment screen library in a volume of 20 μl. […] The reaction mixture was incubated at room temperature for 4 h, and fluorescence was measured using a Tecan Spark plate reader. Fluorescence was measured in a black flat bottom 384-well plate (Corning).
The average value of this background was subtracted from the fluorescence values obtained from all other wells. […] Activity of Nsp15 in the presence of small molecules from the fragment screen library was calculated relative to this positive control value. Z-factors ([22]) were calculated for each 384-well plate to determine the quality of the screen. […]

Turning to `Cc1cc(=O)oc2cc(O)ccc12` [4-MU], in data set [1], the “Brightness (ϵ × Φ)” value was 10 710 M^−1 cm^−1, the “Extinction coefficient (ϵ)” value was 17 000 M^−1 cm^−1, the “Maximum emission wavelength (λem)” value was 450 nm and the “Maximum excitation wavelength (λmax)” value is 360 nm. In addition, the “Quantum yield (Φ)” value in data set [1] is given as 0.63.
For `[Cl-].[Cl-].[Zn+2]` [ZnCl2], the “inhibition of Nsp15” value on Nsp15 is “inhibited Nsp15”.
